Data on one molecule can be found in patent US10646478B2, “Methods for treatment of melanoma” (CHILDREN'S MEDICAL CENTER CORPORATION, priority 2011, dated 2020).

The subject of data set [1] is pigmented melanocytes in spt5m806 embryos. Briefly: Spt5 hypomorphic experiments: pigmentation in spt5m806 incross. It counts as in vivo, zebrafish. To be noted: 3 uM. From the text: This allele has only a mild pigment defect on its own. […] Embryos were scored at 48 hpf for pigmentation, scored as “unpigmented”, “light”, or “fully pigmented” as compared to untreated wells. Individual embryos were then genotyped for the spt5^m806 mutation as previously described^14. Kruskall-Wallis analysis was used to detect a difference between the genotyped groups.

The test system of data set [2] is neural crest stem cells (NCSCs) from fetal (E14.5) rat gut. Briefly: Rat neural crest stem cell assays (self-renewal, colony size, differentiation). It counts as cell-based. How it is done:
Enteric NCSCs from the fetal (E14.5) rat gut were isolated using flow cytometry to select the 1%-2% of cells expressing the highest levels p75 and α4 integrin as previously described^9. Cells were plated at clonal density in two wells/treatment and cultured in self-renewal medium for 8 days in LEF, A771726 or the vehicle (DMSO) followed by differentiation medium+/−LEF, A771726 or DMSO for 6 days. Cultures were fixed in 4% PFA then stained with antibodies against peripherin, GFAP, and SMA to identify neurons (N), glia (G) and myofibroblasts (M) respectively (U=unstained cells). A total of 3 to 4 independent experiments were performed, and differences measured by ANOVA followed by Bonferonni posthoc comparison. Self-renewal medium contains: DMEM-low glucose, 15% Chick Embryo Extract (CEE), Penn/Strep (P/S), 1% N2 supplement, 2% B27 supplement, 110 nM Retinoic Acid, 50 μM 2-mercaptoethanol 20 ng/ml bFGF, and 20 ng/ml IGF-1. Differentiation medium is the same except it contains 1% CEE, 10 ng/ml bFGF and no IGF-1. Differences between groups were calculated using ANOVA followed by posthoc Sheffe.
Dissociated fetal rat gut cells were plated at clonal density in non-adherent conditions in self-renewal medium with LEF, a77 or DMSO for 10 days^10. Three to five primary neurospheres per treatment were individually re-plated in adherent conditions with LEF, a77 or DMSO and after three days were dissociated into a single cell suspension using trypsin and collagenase IV. Dissociated cells from each neurosphere were re-plated in non-adherent conditions without LEF or a77 and after 10 days, the number of secondary neurospheres were counted and compared. To assess the number of multipotent primary and secondary neurospheres, a subset of neurospheres were plated adherently for 8 days in self-renewal medium followed by 6 days in differentiation medium. Cultures were fixed in 4% PFA and stained with antibodies against peripherin, GFAP, and SMA to identify neurons (N), glia (G) and myofibroblasts (M) respectively. A total of 5 independent experiments were analyzed, and the number of multipotent secondary neurospheres on a given day are normalized to the DMSO control wells, and differences calculated by ANOVA.

The test system of data set [3] is M481 primary human melanoma xenografts. Put plainly: M481 primary human melanoma xenografts in mice. The settings on record: in combination with Plexicon. It counts as in vivo, mouse.
The subject of data set [4] is CYP450 isoenzymes. The settings on record: parent compound and active metabolite; cited from earlier work.
The conditions of data set [5]: 100 mg daily for 3 days, then 20 mg per day; cited from earlier work.
The subject of data set [6] is 5' and 3' transcripts of mitf, dlb, beta-actin. Put plainly: 5'-3' transcriptional elongation assay (qRT-PCR on whole embryos). It counts as in vivo, zebrafish. How it is done:
Primers were designed to the noted genes, situated at the very 5′ end or 3′ end of the gene, situated in the UTR if annotated. qRT-PCR was then performed using SYBR Green, and each primer pair was normalized to an average of the Ct value for the 5′ beta-actin and 3′ beta-actin primers. Fold-change was calculated using the delta-delta Ct method, and all values are expressed relative to the DMSO control, after log 2 transformation. Differences between groups were assessed using t-tests. Primer sequences available upon request.

For data set [7], the system named is M481 cells. Briefly: Cell viability of primary human melanoma cells M481. To be noted: FIG. 28a. It counts as cell-based. From the text:
FIG. 28a, M481 cells. FIG. 28b, A375 cells. FIG. 28c, M405 cells. FIG. 28d, M528 cells. FIG. 28e, M715 cells.

Data set [8] relates to human melanoma cell lines (A375, Hs.294t, RPMI7951). Put plainly: In vitro melanoma proliferation assay (CellTiterGlo). The data set is classed as cell-based. The settings on record: A375, Hs.294t, RPMI7951; CellTiterGlo. As to the method:
Human melanoma cell lines (A375, RPMI7951, Hs.294T, MAMLE-3M) were obtained from the American Type Culture Collection. The 8988 cell line was provided by Alec Kimmelman at Dana Farber, and the PANC1 and MDA-231-MB lines were provided by Rania Hartouche at Harvard. Cells were cultured in DMEM/10% FCS at 37 C, 5% CO2. For proliferation assays, 96-well clear bottom plates were used to plate cells at a density of 5,000 cells/well (RPMI7951 and A375) or 10,000 cells/well (MAMLE-3M-3M and Hs.294T) in 100 ul containing indicated concentrations of A771726 or PLX4720 or DMSO. All conditions were tested in triplicate. Media was changed at day 2, and proliferation rate was measured at day 4 using the CellTiterGlo assay kit (Promega). All values are expressed are the % of luciferase relative to the DMSO control well. Differences between groups were statistically analyzed using a generalized linear ANOVA model taking into account factors of PLX4720, A771726 and dose. IC50's were calculated using a log-logistic model.

For data set [9], the system named is neural crest derivatives. Put plainly: Zebrafish neural crest assay (melanocytes, mitf-GFP, iridophores, mbp-mCherry glia, jaw cartilage). It counts as in vivo. From the text: The mitf-GFP transgenic was scored at 24 hpf, as this is the point of maximal GFP intensity.
In data set [10] the test system is A375 melanoma cells. Put plainly: In vivo xenograft study of A375 cells in nude mice. More on the design: species or system mouse. To be noted: daily i.p.; PLX4720 2.5 mg/kg, Leflunomide 7.5 mg/kg; DMSO 7.4+/−1.3-fold. How it is done:
The A375 cell line was chosen for xenografts based on prior experience with PLX4720 in this line. Cells were grown to 60-70% confluence, trypsinized and 3.5×10^5 cells were transplanted into the right flank of nude mice in a volume of 200 ul. […] Tumors were measured with digital calipers on day 4, 7 and 12 and growth rate was compared to the tumor size on day 0. Growth rates were compared between DMSO, PLX, LEF or […] using ANOVA with repeated measures to identify significant interactions. For the day 12 data, differences between the groups were compared using ANOVA followed by posthoc Tukey's least-squared difference.

[11] abbreviates: 6.5 uM, 24 hpf, relative to DMSO.

Take `Cc1oncc1C(=O)Nc1ccc(C(F)(F)F)cc1` [leflunomide]: the “embryos with few or no melanocytes, spt5m806 mutant” value in [1] (mutant embryos) was found to be 99%. For the same molecule, the “embryos with few or no melanocytes, wild type” value in data set [1] (wild type embryos) was found to be 0%. Further, in data set [2], the “colony size reduced compared to controls” value was 18%, the “differentiation or survival of specific progeny” value was “no effect on differentiation or survival of specific progeny” and the “number of self-renewing NCSCs from primary stem cell colonies” value was 27+/−5.35 % of controls. Further, the tumor volume result in [3] is “more effective when used in combination with Plexicon”. The “metabolism by CYP450 isoenzymes” value in data set [4] is reported as “Neither the parent compound nor the active metabolite is metabolized by CYP450 isoenzymes”. In addition, the steady-state concentration entry in [5] is “approximately 60 mcg/mL”. In data set [6] (setting [11]), the “dlb 3′ transcript abundance” value was 0.74+/−0.07 fold, the “dlb 5′ transcript abundance” value is 1.13+/−0.14 fold, the “mitf 3′ transcript abundance” value was 0.39+/−0.07 fold and the “mitf 5′ transcript abundance” value is 3.75+/−1.19 fold. Moreover, in [6] (control gene, 6.5 uM, 24 hpf), the “beta-actin 3′ transcript abundance” value is 0.99+/−0.06 fold and the “beta-actin 5′ transcript abundance” value is 1.03+/−0.07 fold. The “3′ transcription of mitf, pvalb2, her4.2 and dlb” value in data set [6] (leflunomide vs. DMSO) is listed as “significant decrease in 3′ transcription”. The “cell survival of M481 cells” value in data set [7] is “impair cell survival”. Further, the “proliferation of human melanoma cell lines” value in [8] was “dose-dependent decrease in melanoma proliferation”. Further, in data set [9] (2.5 uM from 5-72 hpf), the microphthalmia entry was “microphthalmia was induced” and the “reflective iridophores on the surface of the eye” value was “reduction of reflective iridophores on the surface of the eye”. For the same molecule, the “mitf-GFP+ cells” value in [9] (24 hpf) is given as “nearly complete loss of mitf-GFP+ cells”. Moreover, the pigmented melanocytes entry in data set [9] (36-48 hpf) is on record as “devoid of pigmented melanocytes”. In addition, in data set [9] (72 hpf), the jaw cartilage entry is reported as “jaw cartilage disruption” and the “myelin basic protein (mbp)-mCherry glial cells” value is reported as “reduction of myelin basic protein (mbp)-mCherry glial cells”. Besides, the “tumor growth at 12 days post-treatment” value in [10] is listed as 4.7+/−0.12 fold.
